Values quoted from earlier work, collected in patent US11718832B2, “Method to reduce oncogenic potential of induced pluripotent stem cells from aged donors” (MEMORIAL SLOAN-KETTERING CANCER CENTER, priority 2014, dated 2023).

System: GSS
Settings: literature

Row | SMILES | Inhibition of GSS
1 | [N-]=[N+]=CC(=O)CC[C@H](N)C(=O)O [6-Diazo-5-oxo-L-norleucine] | inhibit GSS
2 | [N-]=[N+]=CC(=O)OC[C@H](N)C(=O)O [azaserine] | inhibit GSS
3 | CCCCS(=N)(=O)CCC(N)C(=O)O (stereo not drawn) [buthionine sulfoximine] | inhibit GSS
